Patent US20090022757A1, “Method for treating photoreceptor cell degeneration” (priority 2007, published 2009)

What was measured:
[1] = tested on: MNU-induced retinal photoreceptor cell degeneration; assay: Electroretinogram of rats with MNU-induced retinal photoreceptor cell degeneration treated with GLS oil and/or DHA; format: in vivo, Sprague Dawley rats; parameters: a-Wave Amplitude / b-Wave Amplitude: unit not given here; conditions: MNU 40 mg/kg i.p.
Protocol: Animals and grouping: One hundred and five 50-day-old Sprague Dawley rats were used in the experiment. Twenty-five rats were selected randomly as the normal control (receiving an excipient via gastric gavage). Eighty rats were used for establishing the photoreceptor cell degeneration model and were treated by intraperitoneal injection with a single dose of MNU at 40 mg/kg. The MNU-injected rats were randomly divided into four experimental groups:
(1) GLS oil treatment group (receiving GSL oil and an excipient via gastric gavage);
(2) GLS oil+DHA treatment group (receiving GSL oil, DHA, and an excipient via gastric gavage);
(3) DHA control group (receiving DHA and an excipient via gastric gavage;
(4) Model control group (receiving an excipient via gastric gavage).
The excipient used in this experiment is hydroxypropyl methyl cellulose. The treatment started three days before the administration of MNU (day-3). Each animal in Groups 1-3 received a daily gastric feeding of GSL oil only, GSL oil and DHA (2 mg/kg), or DHA (2 mg/kg) only, in 1 ml 0.5% hydroxypropyl methyl cellulose. Animals in Group 4 received 1 ml 0.5% hydroxypropyl methyl cellulose.
Electroretinogram examination: The pupils of rats were dilated as described in Example 1. The electroretinogram examinations were conducted under the following conditions:
A Neuropack II electrophysiological analyzer was employed to measure the visual electrophysiology.

[2] = tested on: MNU-induced retinal photoreceptor cell degeneration; assay: Pathological examination of MNU-induced retinal photoreceptor cell damage in rats treated with GLS oil and/or DHA; conditions: MNU 40 mg/kg i.p., damage score
[3] = daily gastric gavage from day -3, day 1
[4] = daily gastric gavage from day -3, day 3
[5] = daily gastric gavage from day -3, day 5
[6] = daily gastric gavage from day -3, day 7
[7] = daily gastric gavage from day -3, day 10

CC/C=C\C/C=C\C/C=C\C/C=C\C/C=C\C/C=C\CCC(=O)O [DHA, Docosahexaenoic acid]
a-Wave Amplitude [1, 3]: 18.43 ± 17.94
a-Wave Latent Period [1, 3]: 10.35 ± 9.02
b-Wave Amplitude [1, 3]: 56.90 ± 61.16
b-Wave Latent Period [1, 3]: 43.92 ± 38.08
a-Wave Amplitude [1, 4]: 14.13 ± 15.71
a-Wave Latent Period [1, 4]: 8.64 ± 9.91
b-Wave Amplitude [1, 4]: 59.43 ± 65.22
b-Wave Latent Period [1, 4]: 35.10 ± 37.34
a-Wave Amplitude [1, 5]: 10.27 ± 11.15
a-Wave Latent Period [1, 5]: 8.30 ± 8.81
b-Wave Amplitude [1, 5]: 47.85 ± 52.05
b-Wave Latent Period [1, 5]: 34.92 ± 36.97
a-Wave Amplitude [1, 6]: 16.61 ± 18.95
a-Wave Latent Period [1, 6]: 9.01 ± 9.56
b-Wave Amplitude [1, 6]: 53.93 ± 58.06
b-Wave Latent Period [1, 6]: 36.24 ± 38.45
a-Wave Amplitude [1, 7]: 19.70 ± 17.97
a-Wave Latent Period [1, 7]: 10.42 ± 9.10
b-Wave Amplitude [1, 7]: 64.71 ± 57.60
b-Wave Latent Period [1, 7]: 43.23 ± 37.88
Number of Eyes with extinguished electroretinogram ([1]; n = 10, day 3): 5
Number of Eyes with extinguished electroretinogram ([1]; n = 10, day 5): 5
Number of Eyes with extinguished electroretinogram ([1]; n = 10, day 7): 5
Number of Eyes with extinguished electroretinogram ([1]; n = 10, day 10): 4
Number of Eyes with extinguished electroretinogram ([1]; n = 10, day 11): 4
The Damage Degree of the Retinal Photoreceptor Cell Pathology ([2]; day 1): 1.40 ± 0.52
The Damage Degree of the Retinal Photoreceptor Cell Pathology ([2]; day 3): 2.2 ± 1.32
The Damage Degree of the Retinal Photoreceptor Cell Pathology ([2]; day 5): 2.9 ± 2.85
The Damage Degree of the Retinal Photoreceptor Cell Pathology ([2]; day 7): 2.80 ± 2.97
The Damage Degree of the Retinal Photoreceptor Cell Pathology ([2]; day 10): 2.60 ± 2.95
